{"source": "patent US20250017915A1", "about": "“METHOD OF TREATING CANCER ASSOCIATED WITH RAS MUTATION” (The Board of Trustees of the University of Illinois, priority 2021, published 2025)", "key": {"Panc1 cells [1]": {"system": "Panc1 cells", "test": "Cell growth assay (percent confluence)", "assay_type": "cell-based, human", "conditions": "Panc1, 1 μM each drug, until DMSO-treated cells reached 100% confluence", "method": "(§1) For cell growth assays, a fixed number of serum starved tumor cells were seeded into each well of a 24 well plate to reach 10% confluence, the subsequent percent confluence evaluated every 4 hours until the control group reached 100% confluence. For cell viability assays, 2,000-4,000 cells were seeded into each well of a 96-well plate in serum free DMEM. After 16 hours, media/drug was added and cells cultured for 72 hours. At this time, we added 20 ul of a 5 mg/ml 3-(4,5-Dimethyl-2-thiazolyl)-2,5-diphenyl-2H-tetrazolium bromide (MTT) solution to each well […]. After two hours, media was aspirated and crystals dissolved in DMSO and 570 nm absorbance determined by plate reader."}, "Panc1 cells [2]": {"system": "Panc1 cells", "test": "Cell viability, MTT assay", "assay_type": "cell-based, human", "conditions": "Panc1, increasing concentrations, with or without 1 μM SGC-CBP30, 48 hours", "method": "as §1\nAfter 48 hours, we examined changes in cell viability via MTT assay."}, "Panc1 cells [3]": {"system": "Panc1 cells", "test": "RNA sequencing and gene set enrichment analysis", "assay_type": "cell-based, human", "conditions": "Panc1, 1 μM, 24 hours, RNA sequencing", "method": "After 24 hours RNA was extracted using the RNeasy Plus Mini Kit (Qiagen, Hilden, Germany) per the manufacturer's instructions. Quality control, sequencing, and data analysis were performed by Novogene."}, "BRD4 and EP300/CBP": {"system": "BRD4 and EP300/CBP", "test": "Immunoprecipitation of BRD4 and EP300/CBP, Panc1", "assay_type": "cell-based, human", "conditions": "Panc1, 1 μM", "method": "For immunoprecipitation, cell lysates were collected using IP buffer (25 mM Tris-HCl pH 7.5, 150 mM NaCl, 1 mM EDTA, 0.1% NP-40 and 5% glycerol) with a protease and phosphatase inhibitory cocktail (Cell Signaling), and cell extracts were incubated overnight with the respective antibodies followed by incubation with protein A or G agarose beads for 4 h at 4° C. After washing 5-7 times with lysis buffer, immunocomplexes were resolved using SDS-PAGE and visualized by western blot. All antibodies were compared with isotype specific IgG controls to affirm specificity. All experiments were performed in triplicate unless otherwise specified.\n(§2) Using these same lysates, we also evaluated the association between BRD4 and EP300/CBP by immunoprecipitation."}, "Panc1 cells [4]": {"system": "Panc1 cells", "test": "Western blot, Panc1", "assay_type": "cell-based, human", "method": "Cell or tissue lysates were lysed in RIPA buffer (Cell Signaling) followed by sonication. Equal amounts of protein (15-50 μg) were mixed with loading dye, boiled for 8 min, separated on a 4-20% denaturing SDS-PAGE gel and transferred to a PVDF membrane. The membrane was blocked in 5% milk/TBS/0.1% Tween for one hour and incubated with antibodies against pRB, pMEK1, MEK1, pERK1/2, ERK1/2, (Cell Signaling, Danvers, MA), H3K27ac (Active Motif, Carlsbad, CA), KRAS (Novus Bio, Saint Charles, MO), BRD4, EP300 (abcam, Cambridge, MA), or GAPDH (Santa Cruz Biotech, Santa Cruz, CA). The membrane was washed with TBS-0.1% Tween and then incubated with HRP conjugated secondary antibody (Cell Signaling) at room temperature for one hour and rewashed. Protein bands were visualized by an enhanced chemiluminescence method (Thermo Fischer, Waltham, MA) and resolved digitally per the manufacturer's specifications.\nas §2"}, "[5]": {"system": "Pdx1-Cre×LSL-Kras^G12D×LSL-TP53^R172H+/− (KPC) mice", "test": "KPC mouse model of invasive PDAC, survival and endpoint tissue analysis", "assay_type": "in vivo", "conditions": "XP-524 5 mg/kg daily IP and/or anti-PD-1 200 μg", "from_the_text": "(§3) Nongenic B6 (Wild Type), P48-Cre×LSL-Kras^G12D (KC), Pdx1-Cre×LSL-Kras^G12D×LSL-TP53^R172H+/− (KPC), and Pdx1-Cre×LSL-Kras^G12D×LSL-TP53^R172H+/+ (KPPC) mice were generated as described previously (24). […] Mice were euthanized at 6 months of age and tissues collected for analysis. […] KPC mice were sacrificed when moribund or showing clear signs of health decline e.g. fur loss, weight loss, or lethargy, or for non-survival studies at the fixed endpoint shown in the number of days after enrollment. For studies involving KPPC mice, animals were enrolled either when developing a 0.5 cm, palpable tumor or at 4 weeks of age. […] For euthanasia, animals were deeply anesthetized with isoflurane until unresponsive to toe tap and/or agonal breathing was observed. Thoracotomy served as the primary method of euthanasia and exsanguination the secondary method. For all mouse studies, mice were age matched within 2 weeks and males and females randomized at a 50:50 ratio.\nUsing these mice, we first conducted an early intervention study in which mice were allowed to develop overt PDAC for a minimum of 15 weeks, at which point 100% of mice in our colony develop focal PDAC. At this time, mice were then randomized at a 50:50 male to female ratio into one of two treatment groups (N=7/group). […]"}, "[6]": {"system": "Pdx1-Cre×LSL-Kras^G12D×LSL-TP53^R172H+/+ (KPPC) mice", "test": "KPPC mouse model of extremely aggressive PDAC, late intervention", "assay_type": "in vivo", "conditions": "5 mg/kg daily IP", "from_the_text": "as §3\nWe next conducted a late intervention study using the Pdx1-Cre×LSL-Kras^G12D×LSL-TP53^R172H+/+ (KPPC) model of extremely aggressive PDAC. In our colony, KPPC mice have a median survival of 43 days (N=12) and develop extensive PDAC as early as two weeks of age. We, therefore, enrolled mice as described either when they developed a 0.5 cm tumor or at 4 weeks of age and placed them into one of two treatment groups (N=6/group)."}}}
{"compound": "Cc1sc2c(c1C)C(c1ccc(Cl)cc1)=N[C@@H](CC(=O)OC(C)(C)C)c1nnc(C)n1-2", "note": "[JQ-1]", "values": [{"measurement": "cell growth", "setting": "Panc1 cells [1]", "value": "modest growth suppression"}, {"measurement": "cell viability", "setting": "Panc1 cells [2]", "value": "reduction in cell viability"}, {"measurement": "KRAS signaling and cell cycle pathways", "setting": "Panc1 cells [3]", "value": "modest suppression of KRAS and cell cycle pathways"}, {"measurement": "co-precipitation of BRD4 and EP300/CBP", "setting": "BRD4 and EP300/CBP", "value": "modestly reduced co-precipitation of BRD4 and EP300/CBP"}, {"measurement": "histone acetylation (H3K27ac)", "setting": "Panc1 cells [4]", "value": "compensatory increase in histone acetylation"}]}
{"compound": "COc1ccc(CCc2nc3cc(-c4c(C)noc4C)ccc3n2C[C@H](C)N2CCOCC2)cc1Cl", "note": "[SGC-CBP30]", "values": [{"measurement": "cell growth", "setting": "Panc1 cells [1]", "value": "marginal effect on cell growth"}]}
{"compound": "CCS(=O)(=O)Nc1cc(-c2cn(C)c3c(=O)[nH]ccc23)cc2c1ccn2C(C)(c1ccccn1)c1ccccn1", "note": "[XP-524]", "values": [{"measurement": "median survival post-enrollment", "setting": "[5]", "value": 108, "unit": "days"}, {"measurement": "median survival post-enrollment", "setting": "[6]", "value": 50, "unit": "days"}]}
